Series [1] has as its system Rattus norvegicus. Kind of series: Analgesic activity in rat model of partial sciatic nerve ligation-induced neuropathic pain assessed as reversal of allodynia at 3 mg/kg, po measured after 3 hrs relative to control. The class given is functional.
Series [2] is described as follows: Oral bioavailability in rat at 1 mg/kg administered as cassette dose. It is filed as ADME, organism-based. The note with it: in vivo.
Series [3] is described as follows: Protein binding in rat plasma assessed as unbound fraction at 1 mg/kg administered as cassette dose. It is filed as ADME, organism-based.
The nature of series [4]: Free plasma concentration in rat plasma at 1 mg/kg administered as cassette dose. The class given is ADME, organism-based. Conditions: in vivo.
Series [5] is described as follows: Ratio of plasma concentration in rat measured after 3 hrs to IC50 of P2X3 (unknown origin). The class given is ADME. The note with it: in vivo.
A short description of series [6]: Ratio of free plasma concentration in rat measured after 3 hrs to IC50 of P2X3 (unknown origin). It is filed as ADME.
The target of series [7] is T1, P2X purinoceptor 3 (Homo sapiens, UniProt P56373).
T1 sequence (P56373 whole entry): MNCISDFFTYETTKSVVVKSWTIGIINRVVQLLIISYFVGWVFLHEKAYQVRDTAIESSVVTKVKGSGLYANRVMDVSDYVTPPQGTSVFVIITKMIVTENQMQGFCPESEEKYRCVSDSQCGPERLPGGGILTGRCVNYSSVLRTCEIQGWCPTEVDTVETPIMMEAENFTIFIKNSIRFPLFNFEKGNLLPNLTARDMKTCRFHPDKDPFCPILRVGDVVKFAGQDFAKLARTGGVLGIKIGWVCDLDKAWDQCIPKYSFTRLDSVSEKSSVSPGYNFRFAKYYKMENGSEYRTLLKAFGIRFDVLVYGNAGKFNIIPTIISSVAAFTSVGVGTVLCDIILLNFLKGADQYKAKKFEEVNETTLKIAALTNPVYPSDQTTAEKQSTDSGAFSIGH
Kind of series: Antagonist activity at P2X3 receptor (unknown origin).

As usually defined, the fraction unbound is the share of the substance not bound to proteins or other matrix. As a reminder, the IC50 is the concentration that inhibits the measured activity by half. Low readings indicate greater potency in that assay, high ones weaker potency in that assay.

With `CC(C)Oc1ccc(/N=c2\[nH]c(=O)n(C[C@H](C)C(=O)O)c(=O)n2Cc2ccc(Cl)cc2)cc1`, the Activity in series [1] is recorded as 2%. The bioavailability in series [2] turned out to be 88.8%. Moreover, in series [3], the fraction unbound worked out at 0.068. Also, in series [4], the “Cp(f)” value amounted to 827 nM. In addition, the Ratio in series [5] was determined as 42.8; in series [6], 2.91.

In the case of `Cc1cc(/N=c2\[nH]c(=O)n(C[C@H](C)C(=O)O)c(=O)n2Cc2ccc(Cl)cc2)ccc1OC(C)C`, the Activity in series [1] is 13%. For the same compound, the bioavailability in series [2] was 102%. Moreover, the fraction unbound in series [3] was determined as 0.02. Besides, the “Cp(f)” value in series [4] came out at 924 nM. Besides, the results for the Ratio in series [5] and in series [6] were 57.8 and 1.16, respectively.

In the case of `CC(C)Oc1ccc(/N=c2\[nH]c(=O)n(C[C@H](C)C(=O)O)c(=O)n2Cc2ccc(Cl)cc2)cc1Cl`, the Activity in series [1] worked out at 26%. In addition, the bioavailability in series [2] turned out to be 82.4%. The fraction unbound in series [3] worked out at 0.003. Besides, the “Cp(f)” value in series [4] came to 1537 nM. Also, the Ratio in series [5] stood at 171.8; in series [6], 0.52.

Regarding `CC(C)Oc1ccc(Nc2nc(=O)n(CCO)c(=O)n2Cc2ccc(Cl)cc2)cc1Cl`, the bioavailability in series [2] is 48.1%. Also, in series [3], the fraction unbound was found to be 0.001. Also, the “Cp(f)” value in series [4] was 3095 nM. Further, the values for the Ratio in series [5] and in series [6] were 204.9 and 0.2, respectively.

As for `CC(C)Oc1ccc(/N=c2\[nH]c(=O)n(C[C@H](C)C(=O)O)c(=O)n2Cc2ccc(Cl)cc2)cc1F`, the Activity in series [1] is 23%. This compound returned a half-inhibitory concentration (IC50) in series [7] of 7.8 nM. In series [2], the bioavailability was determined as 96%. Also, the fraction unbound in series [3] came out at 0.009. Besides, the “Cp(f)” value in series [4] came out at 1126 nM. The Ratio in series [5] was 145.2; in series [6], 1.31.

Consider `CC(C)Oc1ccc(Nc2nc(=O)n(CC(CO)CO)c(=O)n2Cc2ccc(Cl)cc2)cc1Cl`, for which it took 6.7 nM to reach half-maximal inhibition in series [7] (IC50). Besides, the bioavailability in series [2] is 54.8%. Also, the fraction unbound in series [3] was 0.003. Further, the “Cp(f)” value in series [4] is listed as 597 nM. Besides, the Ratio in series [5] was 89.2; in series [6], 0.27.

For `Cc1ccc(Cn2c(=O)n(C[C@H](C)C(=O)O)c(=O)[nH]/c2=N\c2ccc(OC(C)C)c(Cl)c2)cc1`, the Activity in series [1] turned out to be 3%. In addition, the bioavailability in series [2] turned out to be 73.1%. For the same compound, the fraction unbound in series [3] was found to be 0.014. Moreover, the “Cp(f)” value in series [4] is 692 nM. Also, the Ratio is given as 98.9 in series [5] and 1.38 in series [6].

Regarding `CC(C)Oc1ccc(/N=c2\[nH]c(=O)n(CCCC(=O)O)c(=O)n2Cc2ccc(Cl)cc2)cc1Cl`, the bioavailability in series [2] is 43.2%. The fraction unbound in series [3] came out at 0.002. Moreover, the “Cp(f)” value in series [4] was 1600 nM. Besides, the Ratio in series [5] is 119.4; in series [6] it was 0.24.

As for `CC(C)Oc1ccc(Nc2nc(=O)n(CCCO)c(=O)n2Cc2ccc(Cl)cc2)cc1Cl`, in series [7], 6.9 nM corresponded to half-maximal inhibition (IC50). Moreover, the bioavailability in series [2] was found to be 36.2%. Moreover, in series [3], the fraction unbound was 0.003. Further, the “Cp(f)” value in series [4] turned out to be 711 nM. Moreover, the Ratio in series [5] is given as 103.5; in series [6], 0.31.

The compound `CC(C)Oc1ccc(/N=c2\[nH]c(=O)n(CC(C)(C)C(=O)O)c(=O)n2Cc2ccc(Cl)cc2)cc1Cl` had an IC50 in series [7] of 6.7 nM. The bioavailability in series [2] worked out at 85.3%. Also, the fraction unbound in series [3] worked out at 0.003. Moreover, in series [4], the “Cp(f)” value is 485 nM. Also, the Ratio in series [5] is on record as 72.4; in series [6] it was 0.22.

The compound `Cc1ccc(Cn2c(=O)n(CC(C)(C)C(=O)O)c(=O)[nH]/c2=N\c2ccc(OC(C)C)c(Cl)c2)cc1` returned an IC50 in series [7] of 9.8 nM. In addition, the bioavailability in series [2] is 30.7%. Moreover, the fraction unbound in series [3] was determined as 0.01. The “Cp(f)” value in series [4] amounted to 139 nM. The Ratio in series [5] was 14.2; in series [6], 0.14.

Consider `CC(C)Oc1ccc(Nc2nc(=O)n(CCC(=O)O)c(=O)n2Cc2ccc(Cl)cc2)cc1Cl`, for which the Activity in series [1] was 6%. Besides, the bioavailability in series [2] stood at 71.2%. Also, the fraction unbound in series [3] is 0.003. Moreover, the “Cp(f)” value in series [4] is recorded as 1267 nM.

`Cc1ccc(Cn2c(=O)n(CCCC(=O)O)c(=O)[nH]/c2=N\c2ccc(OC(C)C)c(Cl)c2)cc1`: in series [1], the Activity turned out to be 20%. The bioavailability in series [2] came out at 108%. Besides, in series [3], the fraction unbound is 0.002. Moreover, in series [4], the “Cp(f)” value is reported as 3655 nM. The Ratio was 294.8 in series [5] and 0.59 in series [6].

`CC(C)Oc1ccc(/N=c2\[nH]c(=O)n(C[C@@H](C)C(=O)O)c(=O)n2Cc2ccc(Cl)cc2)cc1Cl`: the bioavailability in series [2] amounted to 108%. Moreover, in series [3], the fraction unbound is 0.002. For the same compound, the “Cp(f)” value in series [4] is 1001 nM. Further, the results for the Ratio in series [5] and in series [6] were 62.2 and 0.12, respectively.

Take `C[C@@H](Cn1c(=O)[nH]/c(=N\c2ccc(Oc3cnccn3)cc2)n(Cc2ccc(Cl)cc2)c1=O)C(=O)O`: inhibition in series [7] was half-maximal at 5.8 nM (IC50). Moreover, the bioavailability in series [2] came to 56.5%. Besides, in series [3], the fraction unbound was found to be 0.018. Besides, the “Cp(f)” value in series [4] is 330 nM. The Ratio in series [5] is on record as 56.2; in series [6], 1.02.

For the compound `C[C@@H](Cn1c(=O)[nH]/c(=N\c2ccc(OC3CCC3)cc2)n(Cc2ccc(Cl)cc2)c1=O)C(=O)O`, the bioavailability in series [2] came out at 54.3%. Moreover, the fraction unbound in series [3] was found to be 0.015. For the same compound, the “Cp(f)” value in series [4] is reported as 462 nM. Further, the Ratio in series [5] came out at 30.4; in series [6], 0.46.

`C[C@@H](Cn1c(=O)[nH]/c(=N\c2ccc(OCC3CC3)cc2)n(Cc2ccc(Cl)cc2)c1=O)C(=O)O`: the bioavailability in series [2] is 45.6%. For the same compound, in series [3], the fraction unbound was determined as 0.021. Besides, in series [4], the “Cp(f)” value is given as 643 nM. Also, the Ratio in series [5] was determined as 37.6; in series [6], 0.79.

The compound `C[C@@H](Cn1c(=O)[nH]/c(=N\c2ccc(Oc3cccnc3)cc2)n(Cc2ccc(Cl)cc2)c1=O)C(=O)O` gave an IC50 in series [7] of 8.6 nM.

For the compound `C[C@@H](Cn1c(=O)[nH]/c(=N\c2ccc(Oc3ccc(F)cn3)cc2)n(Cc2ccc(Cl)cc2)c1=O)C(=O)O`, the bioavailability in series [2] amounted to 82.4%. Besides, in series [3], the fraction unbound turned out to be 0.011. Further, the “Cp(f)” value in series [4] is 473 nM.

In the case of `CC(C)COc1ccc(/N=c2\[nH]c(=O)n(C[C@H](C)C(=O)O)c(=O)n2Cc2ccc(Cl)cc2)cc1`, in series [2], the bioavailability came to 48.7%. The fraction unbound in series [3] was 0.025. Further, the “Cp(f)” value in series [4] is listed as 253 nM. For the same compound, the Ratio stood at 11.5 in series [5] and 0.29 in series [6].

For the compound `C[C@@H](Cn1c(=O)[nH]/c(=N\c2ccc(Oc3cccc(F)n3)cc2)n(Cc2ccc(Cl)cc2)c1=O)C(=O)O`, the bioavailability in series [2] came to 60%. For the same compound, the fraction unbound in series [3] was found to be 0.007. The “Cp(f)” value in series [4] amounted to 456 nM.

`CC(C)Oc1ccc(/N=c2\[nH]c(=O)n(C[C@@H](O)CO)c(=O)n2Cc2ccc(Cl)cc2)cc1Cl`: half-maximal inhibition in series [7] (IC50) required 5.7 nM. Besides, the bioavailability in series [2] came out at 63%. Also, in series [3], the fraction unbound is 0.001. Besides, the “Cp(f)” value in series [4] is 1627 nM. In addition, the figures for the Ratio in series [5] and in series [6] were 284.5 and 0.28, respectively.

For the compound `C[C@@H](Cn1c(=O)[nH]/c(=N\c2ccc(Oc3ccncc3)cc2)n(Cc2ccc(Cl)cc2)c1=O)C(=O)O`, the midpoint of inhibition in series [7], the IC50, lay at 5.2 nM.

Take `CC.C[C@@H](Cn1c(=O)[nH]/c(=N\c2ccc(Oc3cc(F)ccn3)cc2)n(Cc2ccc(Cl)cc2)c1=O)C(=O)O`: the IC50 in series [7] worked out at 4.9 nM. For the same compound, the bioavailability in series [2] is 40.2%. For the same compound, the fraction unbound in series [3] amounted to 0.004. Moreover, the “Cp(f)” value in series [4] came out at 240 nM. Besides, the Ratio stood at 48.9 in series [5] and 0.2 in series [6].

Turning to `CC(C)Oc1ccc(/N=c2\[nH]c(=O)n(C[C@H](O)CO)c(=O)n2Cc2ccc(Cl)cc2)cc1Cl`, the midpoint of inhibition in series [7], the IC50, lay at 10.4 nM.

As for `C[C@@H](Cn1c(=O)[nH]/c(=N\c2ccc(Oc3nccs3)cc2)n(Cc2ccc(Cl)cc2)c1=O)C(=O)O`, the bioavailability in series [2] was 41.4%. Moreover, the fraction unbound in series [3] was found to be 0.006. Besides, the “Cp(f)” value in series [4] is recorded as 319 nM.

As to `C[C@@H](Cn1c(=O)[nH]/c(=N\c2ccc(Oc3cncc(F)c3)cc2)n(Cc2ccc(Cl)cc2)c1=O)C(=O)O`, the bioavailability in series [2] is 74.3%. The fraction unbound in series [3] stood at 0.02. In addition, the “Cp(f)” value in series [4] came out at 529 nM.

`C[C@@H](Cn1c(=O)[nH]/c(=N\c2ccc(Oc3cccnn3)cc2)n(Cc2ccc(Cl)cc2)c1=O)C(=O)O` registered an IC50 in series [7] of 7.7 nM. Moreover, the bioavailability in series [2] was determined as 30.2%. For the same compound, the fraction unbound in series [3] was determined as 0.014. In addition, the “Cp(f)” value in series [4] came to 64 nM. For the same compound, the Ratio in series [5] was determined as 8.3; in series [6] it was 0.12.

The record behind these values is ChEMBL document CHEMBL5030545, “Discovery of clinical candidate Sivopixant (S-600918): Lead optimization of dioxotriazine derivatives as selective P2X3 receptor antagonists” (Bioorg Med Chem Lett, 2021).
